Assay type in all cases: biochemical
In one assay the target is T1, KIF3A (SEQ ID NO:16) (Homo sapiens, UniProt Q9Y496).
T1 construct: His6 (printed only as 'H')
Nature of the assay: KIF3A motor domain ATPase assay. The settings on record: n = 2.

The target in another assay is T2, KSP (SEQ ID NO:15) (Homo sapiens, UniProt P52732).
T2 construct: His6 (printed only as 'H')
T2 sequence (P52732 with tags, fused parts or gaps): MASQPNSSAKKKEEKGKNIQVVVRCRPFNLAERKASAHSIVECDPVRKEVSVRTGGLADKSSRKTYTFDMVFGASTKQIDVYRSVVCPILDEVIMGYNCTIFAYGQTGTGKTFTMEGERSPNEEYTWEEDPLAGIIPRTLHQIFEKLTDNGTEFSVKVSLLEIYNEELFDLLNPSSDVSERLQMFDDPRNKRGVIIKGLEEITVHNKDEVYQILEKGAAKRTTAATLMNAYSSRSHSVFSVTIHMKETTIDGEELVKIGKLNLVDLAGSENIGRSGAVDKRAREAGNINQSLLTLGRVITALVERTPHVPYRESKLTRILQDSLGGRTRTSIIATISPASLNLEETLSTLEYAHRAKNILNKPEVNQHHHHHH
Briefly: KSP motor domain ATPase assay. The settings on record: n = 2.

A further assay has as its target T3, nKHC (SEQ ID NO:18) (Homo sapiens, UniProt Q12840).
T3 construct: His6 (printed only as 'H')
T3 sequence (Q12840 with tags, fused parts or gaps): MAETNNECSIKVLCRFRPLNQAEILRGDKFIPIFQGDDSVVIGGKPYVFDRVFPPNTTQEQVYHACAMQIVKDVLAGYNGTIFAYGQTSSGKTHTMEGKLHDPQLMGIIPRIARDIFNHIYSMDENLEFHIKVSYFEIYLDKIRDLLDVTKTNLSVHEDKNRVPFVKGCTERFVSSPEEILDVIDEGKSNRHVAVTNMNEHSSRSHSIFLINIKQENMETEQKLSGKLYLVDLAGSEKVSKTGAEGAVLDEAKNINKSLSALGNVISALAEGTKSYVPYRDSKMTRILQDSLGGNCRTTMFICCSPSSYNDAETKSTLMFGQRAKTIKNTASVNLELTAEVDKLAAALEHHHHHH
Nature of the assay: nKHC motor domain ATPase assay. The settings on record: read-out: uKHC, nKHC, CENP-E, MKLP-1, KIF1B, MCAK ATPase IC50.

The next assay deals with T4, CENP-E (SEQ ID NO:19) (Homo sapiens, UniProt Q02224).
T4 construct: His6 (printed only as 'H')
T4 sequence (Q02224 with tags, fused parts or gaps): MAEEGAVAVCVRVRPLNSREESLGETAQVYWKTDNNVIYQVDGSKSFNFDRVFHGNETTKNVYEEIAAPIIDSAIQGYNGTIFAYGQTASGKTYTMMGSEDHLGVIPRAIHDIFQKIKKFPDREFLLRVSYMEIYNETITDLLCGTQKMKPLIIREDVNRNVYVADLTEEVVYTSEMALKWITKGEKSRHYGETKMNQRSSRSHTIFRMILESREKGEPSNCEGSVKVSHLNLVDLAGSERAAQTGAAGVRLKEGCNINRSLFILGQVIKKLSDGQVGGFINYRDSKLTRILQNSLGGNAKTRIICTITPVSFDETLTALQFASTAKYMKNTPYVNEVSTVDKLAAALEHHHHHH
Briefly: CENP-E motor domain ATPase assay. As to conditions: read-out: uKHC, nKHC, CENP-E, MKLP-1, KIF1B, MCAK ATPase IC50.

For another assay, the target named is T5, MKLP-1 (SEQ ID NO:20) (Homo sapiens, UniProt Q02241).
T5 construct: His6 (printed only as 'H')
T5 sequence (Q02241 with tags, fused parts or gaps): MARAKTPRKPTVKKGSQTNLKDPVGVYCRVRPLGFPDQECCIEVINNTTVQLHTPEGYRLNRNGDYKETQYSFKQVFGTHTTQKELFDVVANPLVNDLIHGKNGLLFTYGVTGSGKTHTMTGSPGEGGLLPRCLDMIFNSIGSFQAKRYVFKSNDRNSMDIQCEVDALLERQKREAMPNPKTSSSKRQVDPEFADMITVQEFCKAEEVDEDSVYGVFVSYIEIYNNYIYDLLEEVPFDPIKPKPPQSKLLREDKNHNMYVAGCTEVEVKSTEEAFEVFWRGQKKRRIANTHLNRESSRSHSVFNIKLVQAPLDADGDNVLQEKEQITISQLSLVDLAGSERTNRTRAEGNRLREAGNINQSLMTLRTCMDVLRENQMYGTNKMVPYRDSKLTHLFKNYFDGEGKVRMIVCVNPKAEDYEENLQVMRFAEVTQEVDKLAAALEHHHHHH
Nature of the assay: MKLP-1 motor domain ATPase assay. The settings on record: read-out: uKHC, nKHC, CENP-E, MKLP-1, KIF1B, MCAK ATPase IC50.

For another assay, the target named is T6, KIF1B (SEQ ID NO:21) (Homo sapiens, UniProt O60333).
T6 construct: His6 (printed only as 'H')
T6 sequence (O60333 with tags, fused parts or gaps): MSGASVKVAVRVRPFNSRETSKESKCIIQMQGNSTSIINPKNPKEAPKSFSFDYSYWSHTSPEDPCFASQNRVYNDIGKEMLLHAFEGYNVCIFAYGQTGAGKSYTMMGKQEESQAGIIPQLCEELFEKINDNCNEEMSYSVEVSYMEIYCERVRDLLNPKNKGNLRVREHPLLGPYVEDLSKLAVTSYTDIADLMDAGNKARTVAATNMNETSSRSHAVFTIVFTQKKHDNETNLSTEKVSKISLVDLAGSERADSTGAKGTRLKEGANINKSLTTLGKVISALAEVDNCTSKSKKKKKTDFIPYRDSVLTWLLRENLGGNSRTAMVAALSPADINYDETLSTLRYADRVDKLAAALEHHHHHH
Briefly: KIF1B motor domain ATPase assay. As to conditions: read-out: uKHC, nKHC, CENP-E, MKLP-1, KIF1B, MCAK ATPase IC50.

From patent US20070134660A1, “Methods for identifying modulators of kinesin activity” (ROSETTA INPHARMATICS LLC, priority 2003, published 2007) come the findings set out here.

For orientation: IC50 means the concentration that gives 50% inhibition.

Each structure is given as a SMILES string.

T1 sequence (Q9Y496 with tags, fused parts or gaps): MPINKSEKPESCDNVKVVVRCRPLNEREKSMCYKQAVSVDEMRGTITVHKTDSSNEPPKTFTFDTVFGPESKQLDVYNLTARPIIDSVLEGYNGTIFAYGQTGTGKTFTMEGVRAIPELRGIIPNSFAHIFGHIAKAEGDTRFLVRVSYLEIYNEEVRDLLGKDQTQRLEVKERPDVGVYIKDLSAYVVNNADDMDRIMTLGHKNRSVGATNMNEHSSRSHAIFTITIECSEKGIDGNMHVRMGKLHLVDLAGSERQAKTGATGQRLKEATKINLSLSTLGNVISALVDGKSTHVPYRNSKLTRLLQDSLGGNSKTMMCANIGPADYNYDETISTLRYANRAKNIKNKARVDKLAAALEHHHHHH

With `NC(=S)N/N=C\c1ccc(-c2ccccc2)cc1` [compound 1, 1,1′-biphenyl-4-carbaldehyde thiosemicarbazone], the IC50 was 0.631 µM on KIF3A (SEQ ID NO:16); above 40 µM against KSP (SEQ ID NO:15); above 40 µM at nKHC (SEQ ID NO:18); above 40 µM at CENP-E (SEQ ID NO:19); above 40 µM at MKLP-1 (SEQ ID NO:20); above 40 µM at KIF1B (SEQ ID NO:21).
`CC(C)c1ccc(/C=N/NC(N)=S)cc1` [compound 2, 4-isopropylbenzaldehyde thiosemicarbazone]: the IC50 at KIF3A (SEQ ID NO:16) was 31 µM; on KSP (SEQ ID NO:15), 25.1 µM; on nKHC (SEQ ID NO:18), above 40 µM; at CENP-E (SEQ ID NO:19) it was above 40 µM; at MKLP-1 (SEQ ID NO:20), above 40 µM; on KIF1B (SEQ ID NO:21) it was above 40 µM.
For `NC(=S)N/N=C/c1ccc(C2CCCCC2)cc1` [compound 3, 4-cyclohexylbenzaldehyde thiosemicarbazone], the half-maximal inhibitory concentration (IC50) at KIF3A (SEQ ID NO:16) was 0.699 µM; against KSP (SEQ ID NO:15), 1.53 µM; at nKHC (SEQ ID NO:18), above 40 µM; on CENP-E (SEQ ID NO:19) it was above 40 µM; on MKLP-1 (SEQ ID NO:20) it was above 40 µM; at KIF1B (SEQ ID NO:21) it was above 40 µM.
As for `CC(C)c1ccc(/C=N/NC(N)=S)cc1[N+](=O)[O-]` [compound 4, 4-isopropyl-3-nitrobenzaldehyde thiosemicarbazone], the IC50 is 1.55 µM at KIF3A (SEQ ID NO:16); 1.1 µM against KSP (SEQ ID NO:15); above 40 µM on nKHC (SEQ ID NO:18); above 40 µM on CENP-E (SEQ ID NO:19); above 40 µM at MKLP-1 (SEQ ID NO:20); above 40 µM on KIF1B (SEQ ID NO:21).
